For 2 compounds, Kd results are on record in publication PMC11589570, “Critical assessment of LC3/GABARAP ligands used for degrader development and ligandability of LC3/GABARAP binding pockets” (Nature Communications, 2024).

One assay deals with LC3. Also noted: method as in Dong et al. The note with it: higher protein and compound concentrations; ref Dong et al.; read-out: Kd (ITC); cited from earlier work.
The target of another assay is GABARAPL2 (Homo sapiens, UniProt P60520). Kind of assay: biochemical.

The structures appear in SMILES notation.

As usually defined, the Kd is the constant that tells how readily two partners part at equilibrium.

Chain of GABARAPL2 (P60520 whole entry): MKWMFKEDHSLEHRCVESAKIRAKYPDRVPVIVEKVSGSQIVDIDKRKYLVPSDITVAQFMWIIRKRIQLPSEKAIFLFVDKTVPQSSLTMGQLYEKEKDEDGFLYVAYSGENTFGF

As for `Cc1ccc(C(=O)N(CCCN)[C@@H](c2nc3cc(Cl)ccc3c(=O)n2Cc2ccccc2)C(C)C)cc1` [compound 3, (R)-N-(3-aminopropyl)-N-(1-(3-benzyl-7-chloro-4-oxo-3,4-dihydroquinazolin-2-yl)−2-methylpropyl)−4-methylbenzamide], the dissociation constant Kd on LC3 is ~12 µM.

Turning to `O=C1Nc2ccc(I)cc2C1=Cc1cc(Br)c(O)c(Br)c1` [compound 4], the Kd on GABARAPL2 was in the range of 15 to 30 µM.
